In ChEMBL document CHEMBL6120963, “Discovery of Novel PROTAC SIRT6 Degraders with Potent Efficacy against Hepatocellular Carcinoma” (J Med Chem, 2024):
Active and inactive are the calls of the source. The calls are words filed in the database; no cut-off is given here.

Key:
SK-HEP1 [1] = experiment: Induction of DNA damage in human SK-HEP1 cells xenografted in BALB/c nude mouse assessed as increase in gamma-H2AX level at 10 mg/kg treated for 28 to 30 days under irradiation (3 Gy); format: functional, organism-based; conditions: time 28-30 day
[2] = biological target: T1, Protein cereblon/NAD-dependent protein deacylase sirtuin-6 (Homo sapiens, UniProt Q8N6T7+Q96SW2); experiment: PROTAC activity at CRBN/SIRT6 in human Huh-7 cells assessed as induction of SIRT6 degradation at 1 uM incubated for 24 hrs by Western blot analysis; format: cell-based
T1 sequence (Q8N6T7 2-355 limits assumed): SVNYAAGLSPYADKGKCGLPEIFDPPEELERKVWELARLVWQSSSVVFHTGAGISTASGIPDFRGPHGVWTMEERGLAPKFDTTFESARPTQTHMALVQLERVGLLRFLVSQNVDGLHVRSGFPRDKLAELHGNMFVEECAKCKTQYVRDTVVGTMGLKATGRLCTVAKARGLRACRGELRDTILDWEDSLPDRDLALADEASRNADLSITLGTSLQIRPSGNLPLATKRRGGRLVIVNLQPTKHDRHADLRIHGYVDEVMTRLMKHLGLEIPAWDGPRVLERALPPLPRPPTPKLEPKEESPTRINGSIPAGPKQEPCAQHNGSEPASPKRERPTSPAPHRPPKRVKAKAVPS
T1 sequence (Q96SW2 whole entry partner): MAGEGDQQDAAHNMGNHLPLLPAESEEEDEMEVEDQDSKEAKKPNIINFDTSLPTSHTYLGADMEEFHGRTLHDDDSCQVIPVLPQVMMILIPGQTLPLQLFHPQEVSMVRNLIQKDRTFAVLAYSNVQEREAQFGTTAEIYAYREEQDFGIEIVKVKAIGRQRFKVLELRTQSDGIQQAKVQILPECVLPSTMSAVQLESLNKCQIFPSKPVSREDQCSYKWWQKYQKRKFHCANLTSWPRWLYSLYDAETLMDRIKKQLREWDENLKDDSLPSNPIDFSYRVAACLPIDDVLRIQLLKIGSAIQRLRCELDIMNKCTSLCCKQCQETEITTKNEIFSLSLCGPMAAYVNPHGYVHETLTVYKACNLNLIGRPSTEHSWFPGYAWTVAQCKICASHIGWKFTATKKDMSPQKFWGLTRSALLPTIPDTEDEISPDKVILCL

SK-HEP1 [3] = experiment: Inhibition of colony formation in human SK-HEP1 cells at 2.5 uM incubated for 10 to 14 days with replacement of medium containing compounds on every 3 days combined with irradiation (3 Gy) by crystal violet staining based analysis; format: functional, cell-based; conditions: time 10-14 day
[4] = Toxicity in BALB/c nude mouse xenografted with human SK-HEP1 cells assessed as pathological damage in lungs at 10 mg/kg treated for 28 to 30 days by H and E staining based analysis; format: organism-based; conditions: in vivo, time 28-30 day
[5] = biological target: T1, Protein cereblon/NAD-dependent protein deacylase sirtuin-6; experiment: PROTAC activity at CRBN/SIRT6 in human SK-HEP1 cells assessed as disruption of CHD4 recruitment to DSB sites at 2.5 uM incubated for 36 hrs followed by VP16 treatment for 4 hrs by Western blot analysis; format: cell-based; conditions: time 40.0 hrs
[6] = biological target: T1, Protein cereblon/NAD-dependent protein deacylase sirtuin-6; experiment: PROTAC activity at CRBN/SIRT6 in human SK-HEP1 cells assessed as impairment in CHD4 foci formation by immunofluorescence based analysis; format: cell-based
SK-HEP1 [7] = experiment: Cytotoxicity against human SK-HEP1 cells harboring SIRT6 siRNA incubated for 72 hrs by CCK8 assay; format: functional, cell-based
[8] = biological target: T1, Protein cereblon/NAD-dependent protein deacylase sirtuin-6; experiment: PROTAC activity at CRBN/SIRT6 in human SK-HEP1 cells assessed as induction of SIRT6 degradation at 2.5 uM incubated for 36 hrs by Western blot analysis; format: cell-based
SK-HEP1 [9] = experiment: Inhibition of colony formation in human SK-HEP1 cells at 2.5 uM incubated for 10 to 14 days with replacement of medium containing compounds on every 3 days in presence of sorafenib by crystal violet staining based analysis; format: functional, cell-based; conditions: time 10-14 day
SK-HEP1 [10] = experiment: Downregulation of CCPG1 expression in human SK-HEP1 cells at 2.5 uM incubated for 36 hrs; format: functional, cell-based
SK-HEP1 [11] = experiment: Effect on H3K18Ac expression in human SK-HEP1 cells at 0.002 to 1 uM incubated for 36 hrs by Western blot analysis; format: functional, cell-based; conditions: dose 0.002-1 µM
SK-HEP1 [12] = experiment: Induction of cell cycle arrest in human SK-HEP1 cells assessed as accumulation at G2/M phase incubated for 72 hrs by PI staining based flow cytometry; format: functional; conditions: dose 2.5-10 µM
SK-HEP1 [13] = experiment: Effect of genes related to DNA replication in human SK-HEP1 cells at 2.5 uM incubated for 36 hrs by GSEA analysis; format: functional, cell-based
SK-HEP1 [14] = experiment: Effect of GBX2 mRNA expression in human SK-HEP1 cells at 2.5 uM incubated for 36 hrs by RNA sequencing analysis; format: functional, cell-based
Huh-7 [15] = experiment: Inhibition of colony formation in human Huh-7 cells at 5 to 10 uM incubated for 10 to 14 days with replacement of medium containing compounds on every 3 days by crystal violet staining based analysis; format: functional, cell-based; conditions: dose 5-10 µM, time 10-14 day
SK-HEP1 [16] = experiment: Effect on H3K56Ac expression in human SK-HEP1 cells at 0.002 to 1 uM incubated for 36 hrs by Western blot analysis; format: functional, cell-based; conditions: dose 0.002-1 µM
[17] = Toxicity in BALB/c nude mouse xenografted with human SK-HEP1 cells assessed as histopathological abnormalities in heart at 10 mg/kg treated for 28 to 30 days under irradiation (3 Gy) by H and E staining based analysis; format: organism-based; conditions: in vivo, time 28-30 day
[18] = Toxicity in BALB/c nude mouse xenografted with human SK-HEP1 cells assessed as histopathological abnormalities in heart at 10 mg/kg treated for 28 to 30 days by H and E staining based analysis; format: organism-based; conditions: in vivo, time 28-30 day
[19] = biological target: T1, Protein cereblon/NAD-dependent protein deacylase sirtuin-6; experiment: PROTAC activity at CRBN/SIRT6 in human SK-HEP1 cells assessed as induction of SIRT6 degradation at 2 uM incubated for 36 hrs by In-Cell ELISA relative to control; format: cell-based
SK-HEP1 [20] = experiment: Downregulation of FBXO44 expression in human SK-HEP1 cells at 2.5 uM incubated for 36 hrs in presence of MG132; format: functional, cell-based
[21] = biological target: T1, Protein cereblon/NAD-dependent protein deacylase sirtuin-6; experiment: PROTAC activity at CRBN/SIRT6 in human SK-HEP1 cells assessed as induction of SIRT6 degradation at 0.02 to 5 uM incubated for 36 hrs by Western blot analysis; format: cell-based; conditions: dose 0.02-5 µM
SK-HEP1 [22] = experiment: Downregulation of ANKRD44 expression in human SK-HEP1 cells at 2.5 uM incubated for 36 hrs; format: functional, cell-based
SK-HEP1 [23] = experiment: Effect of CDK15 mRNA expression in human SK-HEP1 cells at 2.5 uM incubated for 36 hrs by RNA sequencing analysis; format: functional, cell-based
[24] = Toxicity in BALB/c nude mouse xenografted with human SK-HEP1 cells assessed as pathological damage in lungs at 10 mg/kg treated for 28 to 30 days under irradiation (3 Gy) by H and E staining based analysis; format: organism-based; conditions: in vivo, time 28-30 day
[25] = biological target: T1, Protein cereblon/NAD-dependent protein deacylase sirtuin-6; experiment: PROTAC activity at CRBN/SIRT6 in human SK-HEP1 cells assessed as impairment in gamma-H2AX foci formation by immunofluorescence based analysis; format: cell-based
[26] = biological target: T1, Protein cereblon/NAD-dependent protein deacylase sirtuin-6; experiment: PROTAC activity at CRBN/SIRT6 in human SK-HEP1 cells assessed as induction of SIRT6 degradation at 200 nM incubated for 36 hrs by In-Cell ELISA relative to control; format: cell-based
Huh-7 [27] = experiment: Effect on SIRT7 expression in human Huh-7 cells at 0.002 to 1 uM incubated for 36 hrs by Western blot analysis; format: functional, cell-based; conditions: dose 0.002-1 µM
SK-HEP1 [28] = experiment: Inhibition of colony formation in human SK-HEP1 cells at 5 uM incubated for 10 to 14 days with replacement of medium containing compounds on every 3 days combined with irradiation (3 Gy) by crystal violet staining based analysis; format: functional, cell-based; conditions: time 10-14 day
SK-HEP1 [29] = experiment: Antitumor activity against human SK-HEP1 cells xenografted in BALB/c nude mouse at 10 mg/kg treated for 28 to 30 days relative to control; format: functional; conditions: time 28-30 day
SK-HEP1 [30] = experiment: Downregulation of FBXO44 expression in human SK-HEP1 cells at 2.5 uM incubated for 36 hrs; format: functional, cell-based
[31] = biological target: T1, Protein cereblon/NAD-dependent protein deacylase sirtuin-6; experiment: PROTAC activity at CRBN/SIRT6 in MG132-treated human SK-HEP1 cells assessed as induction of SIRT6 degradation at 2.5 uM treated for 36 hrs by Western blot analysis; format: cell-based
SK-HEP1 [32] = experiment: Induction of DNA damage in human SK-HEP1 cells assessed as long tail moment incubated for 36 hrs followed by irradiation (10 Gy) for 6 hrs by comet assay; format: functional, cell-based
SK-HEP1 [33] = experiment: Inhibition of colony formation in human SK-HEP1 cells at 5 uM incubated for 10 to 14 days with replacement of medium containing compounds on every 3 days in presence of sorafenib by crystal violet staining based analysis; format: functional, cell-based; conditions: time 10-14 day
[34] = Toxicity in BALB/c nude mouse xenografted with human SK-HEP1 cells assessed as histopathological abnormalities in spleen at 10 mg/kg treated for 28 to 30 days by H and E staining based analysis; format: organism-based; conditions: in vivo, time 28-30 day

Structure (SMILES): Nc1cc(N2CCN(CC3CCN(c4cc5c(cc4F)C(=O)N(C4CCC(=O)NC4=O)C5=O)CC3)CC2)ccc1[N+](=O)[O-] (centres undefined)
- Activity (SK-HEP1 [1]): Active
- Activity [2]: Active; Reached A Plateau After 36 Hrs Of Treatment
- inhibition (SK-HEP1 [3]): Active; Exhibited Superior To Compound Alone
- Activity [4]: Non-toxic
- Activity [5]: Active
- Activity [6]: Active
- Activity (SK-HEP1 [7]): inactive
- Activity [8]: Active
- inhibition (SK-HEP1 [9]): Active; Exhibited Superior To Compound Alone
- Activity (SK-HEP1 [10]): Active
- Activity (SK-HEP1 [11]): No effect
- Activity (SK-HEP1 [12]): Dose-dependent-effect
- Activity (SK-HEP1 [13]): Active
- Activity (SK-HEP1 [14]): Active
- inhibition (Huh-7 [15]): Active
- Activity (SK-HEP1 [16]): No effect
- Activity [17]: Non-toxic
- Activity [18]: Non-toxic
- Activity [19]: 92.5%
- Activity (SK-HEP1 [20]): inactive
- Activity [21]: Active
- Activity (SK-HEP1 [22]): Active
- Activity (SK-HEP1 [23]): Active
- Activity [24]: Non-toxic
- Activity [25]: Active
- Activity [26]: 67.7%
- Activity (Huh-7 [27]): No effect
- inhibition (SK-HEP1 [28]): Not active; Exhibited Weaker Inhibition
- T/C (SK-HEP1 [29]): 39.6%
- Activity (SK-HEP1 [30]): Active
- Activity [31]: Not active; Confirms That Proteosome Is Necessary For Sirt6 Degradation
- Activity (SK-HEP1 [32]): Active
- inhibition (SK-HEP1 [33]): Not active; Exhibited Weaker Inhibition
- Activity [34]: Non-toxic
